From patent US11802120B2, “Fused cyclic urea derivatives as CRHR2 antagonist” (RaQualia Pharma Inc., priority 2018, dated 2023) come the findings set out here.

The target in this experiment is T1, human CRHR2-alpha (Homo sapiens, UniProt Q13324).
T1 sequence (Q13324 1-411): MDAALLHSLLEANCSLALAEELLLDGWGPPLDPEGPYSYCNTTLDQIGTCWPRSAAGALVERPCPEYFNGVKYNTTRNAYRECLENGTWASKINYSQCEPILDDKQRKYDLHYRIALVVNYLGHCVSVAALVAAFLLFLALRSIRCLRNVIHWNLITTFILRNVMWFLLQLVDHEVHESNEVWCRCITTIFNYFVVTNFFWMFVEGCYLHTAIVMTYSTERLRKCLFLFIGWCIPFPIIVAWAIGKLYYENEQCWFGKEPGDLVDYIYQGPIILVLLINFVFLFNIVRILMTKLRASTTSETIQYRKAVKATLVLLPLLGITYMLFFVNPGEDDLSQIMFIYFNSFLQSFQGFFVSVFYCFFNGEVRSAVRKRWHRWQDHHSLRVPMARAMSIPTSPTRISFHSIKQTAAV
Description: cAMP functional assay for human CRHR2 (LANCE Ultra cAMP, TR-FRET). Particulars: CHO-K1 cells expressing human CRHR2-alpha, agonist human urocortin2 at EC80, cAMP; read-out: IC50 against CRHR2. Format: cell-based. The method in brief:
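CHO-K1 cells stably expressing each receptor, serum-starved and cryopreserved, were preincubated with compound 30 min at 25° C in HBSS buffer with 0.5 mM IBMX, pH 7.4, then stimulated 30 min with EC80 agonist (urocortin2 for CRHR2, CRF for CRHR1). cAMP read by TR-FRET; IC50 from percent-inhibition curves.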
For orientation: TR-FRET usually uses a lanthanide donor and a delayed reading to cut background.
As usually defined, the IC50 is the point on the concentration scale where inhibition reaches its midpoint. Take `COc1ccc(-n2c(=O)n(C[C@H]3CC[C@H](NC(=O)c4cc(Cl)cnc4C)CC3)c3ccccc32)c(C)n1` [Example 149, 5-chloro-N-((1r,4r)-4-((3-(6-methoxy-2-methylpyridin-3-yl)-2-oxo-2,3-dihydro-1H-benzo[d]imidazol-1-yl)methyl)cyclohexyl)-2-methylnicotinamide]: the IC50 was less than 300 nM.
The figure for `CNc1ccc(-n2c(=O)n(C[C@H]3CC[C@H](NC(=O)c4cc(Cl)cnc4C)CC3)c3ccccc32)c(C)n1` [Example 150, 5-chloro-2-methyl-N-((1r,4r)-4-((3-(2-methyl-6-(methylamino)pyridin-3-yl)-2-oxo-2,3-dihydro-1H-benzo[d]imidazol-1-yl)methyl)cyclohexyl)nicotinamide] is less than 300 nM.
`Cc1ncc(Cl)cc1C(=O)N[C@H]1CC[C@H](Cn2c(=O)n(-c3ccc(C(=O)NC4CC4)nc3)c3ccccc32)CC1` [Example 151, 5-(3-(((1r,4r)-4-(5-chloro-2-methylnicotinamido)cyclo-hexyl)methyl)-2-oxo-2,3-dihydro-1H-benzo[d]imidazol-1-yl)-N-cyclopropyl-picolinamide]: the IC50 was less than 300 nM.
For the compound `Cc1ncc(Cl)cc1C(=O)N[C@H]1CC[C@H](Cn2c(=O)n(-c3cnc4c(c3)CCN4)c3ccccc32)CC1` [Example 152, 5-chloro-N-((1r,4r)-4-((3-(2,3-dihydro-1H-pyrrolo[2,3-b]pyridin-5-yl)-2-oxo-2,3-dihydro-1H-benzo[d]imidazol-1-yl)methyl)cyclohexyl)-2-methylnicotinamide], the IC50 is less than 300 nM.
For the compound `Cc1ncc(Cl)cc1C(=O)N[C@H]1CC[C@H](Cn2c(=O)n(-c3ccc4ncoc4c3)c3ccccc32)CC1` [Example 153, N-((1r,4r)-4-((3-(benzo[d]oxazol-6-yl)-2-oxo-2,3-dihydro-1H-benzo[d]imidazol-1-yl)methyl)cyclo-hexyl)-5-chloro-2-methylnicotinamide], the IC50 was less than 300 nM.
With `Cc1ncc(Cl)cc1C(=O)N[C@H]1CC[C@H](Cn2c(=O)n(-c3cnc4c(c3)CCN4C)c3ccccc32)CC1` [Example 154, 5-chloro-2-methyl-N-((1r,4r)-4-((3-(1-methyl-2,3-dihydro-1H-pyrrolo[2,3-b]pyridin-5-yl)-2-oxo-2,3-dihydro-1H-benzo[d]imidazol-1-yl)methyl)cyclohexyl)nicotinamide], the IC50 is less than 300 nM.
As for `CC(=O)N1CCc2cc(-n3c(=O)n(C[C@H]4CC[C@H](NC(=O)c5cc(Cl)cnc5C)CC4)c4ccccc43)cnc21` [Example 155, N-((1r,4r)-4-((3-(1-acetyl-2,3-dihydro-1H-pyrrolo[2,3-b]pyridin-5-yl)-2-oxo-2,3-dihydro-1H-benzo[d]imidazol-1-yl)methyl)cyclohexyl)-5-chloro-2-methylnicotinamide], the IC50 was less than 300 nM.
As for `Cc1ncc(Cl)cc1C(=O)N[C@H]1CC[C@H](Cn2c(=O)n(-c3cnc4cc[nH]c4c3)c3ccccc32)CC1` [Example 158, 5-chloro-2-methyl-N-((1r,4r)-4-((2-oxo-3-(1H-pyrrolo[3,2-b]pyridin-6-yl)-2,3-dihydro-1H-benzo[d]imidazol-1-yl)methyl)cyclohexyl)nicotinamide], the IC50 is less than 300 nM.
Consider `Cc1ncc(Cl)cc1C(=O)N[C@H]1CC[C@H](Cn2c(=O)n(-c3cnc4c(c3)OCCN4)c3ccccc32)CC1` [Example 159, 5-chloro-N-((1r,4r)-4-((3-(3,4-dihydro-2H-pyrido[3,2-b][1,4]oxazin-7-yl)-2-oxo-2,3-dihydro-1H-benzo[d]imidazol-1-yl)methyl)cyclohexyl)-2-methylnicotinamide], for which the IC50 was less than 300 nM.
Regarding `Cc1ncc(Cl)cc1C(=O)N[C@H]1CC[C@H](Cn2c(=O)n(-c3cnc4c(c3)OCCN4C)c3ccccc32)CC1` [Example 160, 5-chloro-2-methyl-N-((1r,4r)-4-((3-(4-methyl-3,4-dihydro-2H-pyrido[3,2-b][1,4]oxazin-7-yl)-2-oxo-2,3-dihydro-1H-benzo [d]imidazol-1-yl)methyl)cyclo-hexyl)nicotinamide], the IC50 was less than 300 nM.
As to `Cc1ncc(Cl)cc1C(=O)N[C@H]1CC[C@H](Cn2c(=O)n(-c3ccc(N4CC(N(C)C)C4)nc3)c3ccccc32)CC1` [Example 161, 5-chloro-N-((1r,4r)-4-((3-(6-(3-(dimethylamino)azetidin-1-yl)pyridin-3-yl)-2-oxo-2,3-dihydro-1H-benzo[d]imidazol-1-yl)methyl)cyclohexyl)-2-methylnicotinamide], the IC50 was less than 300 nM.
The figure for `Cc1ncc(Cl)cc1C(=O)N[C@H]1CC[C@H](Cn2c(=O)n(-c3ccc(N4CCC4)nc3)c3ccccc32)CC1` [Example 162, N-((1r,4r)-4-((3-(6-(azetidin-1-yl)pyridin-3-yl)-2-oxo-2,3-dihydro-1H-benzo[d]imidazol-1-yl)methyl)cyclo-hexyl)-5-chloro-2-methyl-nicotinamide] is less than 300 nM.
As for `Cc1ncc(Cl)cc1C(=O)N[C@H]1CC[C@H](Cn2c(=O)n(-c3cnc4c(cnn4C)c3)c3ccccc32)CC1` [Example 163, 5-chloro-2-methyl-N-((1r,4r)-4-((3-(1-methyl-1H-pyrazolo [3,4-b]pyridin-5-yl)-2-oxo-2,3-dihydro-1H-benzo[d]imidazol-1-yl)methyl)cyclo-hexyl)nicotinamide], the half-maximal inhibitory concentration (IC50) is less than 300 nM.
For the compound `Cc1ncc(Cl)cc1C(=O)N[C@H]1CC[C@H](Cn2c(=O)n(-c3ccc4c(c3)oc(=O)n4C)c3ccccc32)CC1` [Example 164, 5-chloro-2-methyl-N-((1r,4r)-4-((3-(3-methyl-2-oxo-2,3-dihydrobenzo[d]oxazol-6-yl)-2-oxo-2,3-dihydro-1H-benzo [d]imidazol-1-yl)methyl)cyclo-hexyl)nicotinamide], the IC50 is less than 300 nM.
Consider `Cc1ncc(Cl)cc1C(=O)N[C@H]1CC[C@H](Cn2c(=O)n(-c3ccc4nccnc4c3)c3ccccc32)CC1` [Example 165, 5-chloro-2-methyl-N-((1r,4r)-4-((2-oxo-3-(quinoxalin-6-yl)-2,3-dihydro-1H-benzo[d]imidazol-1-yl)methyl)cyclo-hexyl)nicotinamide], for which the IC50 is less than 300 nM.
`CCn1nc2ccccc2c1C(=O)N[C@H]1CC[C@H](Cn2c(=O)n(-c3ccc(C(=O)NC)nc3)c3ccccc32)CC1` [Example 166, 2-ethyl-N-((1r,4r)-4-((3-(6-(methylcarbamoyl)pyridin-3-yl)-2-oxo-2,3-dihydro-1H-benzo [d]imidazol-1-yl)methyl)cyclo-hexyl)-2H-indazole-3-carboxamide]: the IC50 is less than 300 nM.
Consider `Cc1ncc(Cl)cc1C(=O)N[C@H]1CC[C@H](Cn2c(=O)n(C3COc4ccccc4C3)c3ccccc32)CC1` (some centres unmarked) [Example 167, 5-chloro-N-((1r,4r)-4-((3-(chroman-3-yl)-2-oxo-2,3-dihydro-1H-benzo[d]imidazol-1-yl)methyl)cyclo-hexyl)-2-methylnicotinamide], for which the IC50 was less than 300 nM.
Take `Cc1ncc(Cl)cc1C(=O)N[C@H]1CC[C@H](Cn2c(=O)n(-c3ccc4c(c3)nc(C)n4C)c3ccccc32)CC1` [Example 168, 5-chloro-N-((1r,4r)-4-((1′,2′-dimethyl-2-oxo-1′H-[1,5′-bibenzo[d]imidazol]-3(2H)-yl)methyl)cyclohexyl)-2-methylnicotinamide]: the IC50 was less than 300 nM.
Consider `Cc1ncc(Cl)cc1C(=O)N[C@H]1CC[C@H](Cn2c(=O)n(-c3ccc4c(c3)n(C)c(=O)n4C)c3ccccc32)CC1` [Example 169, 5-chloro-N-((1r,4r)-4-((1′,3′-dimethyl-2,2′-dioxo-2′,3′-dihydro-1′H-[1,5′-bibenzo [d]imidazol]-3(2H)-yl)methyl)cyclohexyl)-2-methylnicotinamide], for which the IC50 was less than 300 nM.
The figure for `Cc1ncc(Cl)cc1C(=O)N[C@H]1CC[C@H](Cn2c(=O)n(-c3ccc4[nH]nc(C)c4c3)c3ccccc32)CC1` [Example 170, 5-chloro-2-methyl-N-((1r,4r)-4-((3-(3-methyl-1H-indazol-5-yl)-2-oxo-2,3-dihydro-1H-benzo[d]imidazol-1-yl)methyl)cyclohexyl)nicotinamide] is less than 300 nM.
The figure for `Cc1ncc(Cl)cc1C(=O)N[C@H]1CC[C@H](Cn2c(=O)n(-c3ccc4c(C)noc4c3)c3ccccc32)CC1` [Example 171, 5-chloro-2-methyl-N-((1r,4r)-4-((3-(3-methylbenzo[d]isoxazol-6-yl)-2-oxo-2,3-dihydro-1H-benzo[d]imidazol-1-yl)methyl)cyclo-hexyl)nicotinamide] is less than 300 nM.
With `Cc1ncc(Cl)cc1C(=O)N[C@H]1CC[C@H](Cn2c(=O)n(-c3cnc4c(C)n[nH]c4c3)c3ccccc32)CC1` [Example 172, 5-chloro-2-methyl-N-((1r,4r)-4-((3-(3-methyl-1H-pyrazolo[4,3-b]pyridin-6-yl)-2-oxo-2,3-dihydro-1H-benzo[d]imidazol-1-yl)methyl)cyclohexyl)nicotinamide], the IC50 is less than 300 nM.
`Cc1ncc(Cl)cc1C(=O)N[C@H]1CC[C@H](Cn2c(=O)n(-c3ccc(C(=O)Nc4ccn(C)n4)nc3)c3ccccc32)CC1` [Example 173, 5-(3-(((1r,4r)-4-(5-chloro-2-methylnicotinamido)cyclohexyl)methyl)-2-oxo-2,3-dihydro-1H-benzo[d]imidazol-1-yl)-N-(1-methyl-1H-pyrazol-3-yl)picolinamide]: the IC50 is less than 300 nM.
